As usually defined, the IC50 is the concentration at which inhibition is half-maximal.

This note sets out measurements from US9233098B2, “Nitrogen-containing fused ring compounds as CRTH2 antagonists” (KBP Biosciences Co., Ltd., priority 2011, dated 2016).

Marks after values point to notes of the source that are not given here.

The first experiment deals with OVA induced BALB/c mice asthma model. The experiment is described as follows: OVA induced mice asthma model, cell count of pulmonary alveoli irrigating solution (oral administration). The class given is in vivo. The following applies: 30 mg/kg oral bid, Mean ± SEM. Here is the method:
Test procedure and results are as follows:
After acclimation, female BALB/c mice were divided into a blank control group, a model group and an administration group based on body weight randomly. Animal groups, dosage of administration and volume of administration were as detailed in Table 2. The model group and the administration group were intraperitoneally injected with OVA (ovalbumin) solution (containing […] and 2 mg potassium aluminium sulfate) 0.1 mL/animal to allergize on days 1, 14, the blank control group was injected with PBS (phosphate buffer solution). On days 28, 29, 30, 1% OVA was atomized and inhaled continuously to activate for 30 min, for the blank control group replaced with PBS. On days 27, 28, 29, 30, 31, the animals were administered orally with the pharmaceutical and the solvent. The blank control group was administered with the solvent 2 times every day, 1 h before inhalation of PBS and 7 h after the inhalation; the model group was administered with the solvent 2 times every day, 1 h before the inhalation of OVA for activation and 7 h after activation; the administration group was administered with the pharmaceutical 2 times every day, 1 h before the inhalation of OVA for activation and 7 h after activation. On day 32, the animals were executed, immediately irrigated the lung with 0.5 mL PBS (containing 1% FBS) via bronchus, and the irrigation was repeated 2 times. The irrigating solutions were combined, centrifugated, and the cells were resuspended with 1.5 mL PBS (containing 1% FBS). Cell count of bronchus pulmonary alveoli irrigating solution.
With `O=C(O)Cc1nn(Cc2ccc(NC(=O)c3ccc4ccccc4c3)cc2)c2ccccc12` [Compound 9, 2-[1-[4-(2-naphthamido)benzyl]-1H-indazol-3-yl]acetic acid], the “Acidophilic Cell” value was 35.26 ± 4.53** *10^4/mL, the Lymphocytes is reported as 1.33 ± 0.23 *10^4/mL, the Macrophages was 55.38 ± 5.1** *10^4/mL and the “Neutrophilic Granulocyte” value is listed as 6.66 ± 1.87* *10^4/mL. Moreover, the “Total White Cell Count” value is recorded as 98.63 ± 4.53** *10^4/mL.

The next experiment concerns the target T1, CRTH2 receptor (Homo sapiens, UniProt Q9Y5Y4).
T1 construct: host or cells: CHO-K1/CRTH2/Gα15
T1 sequence (Q9Y5Y4 1-395): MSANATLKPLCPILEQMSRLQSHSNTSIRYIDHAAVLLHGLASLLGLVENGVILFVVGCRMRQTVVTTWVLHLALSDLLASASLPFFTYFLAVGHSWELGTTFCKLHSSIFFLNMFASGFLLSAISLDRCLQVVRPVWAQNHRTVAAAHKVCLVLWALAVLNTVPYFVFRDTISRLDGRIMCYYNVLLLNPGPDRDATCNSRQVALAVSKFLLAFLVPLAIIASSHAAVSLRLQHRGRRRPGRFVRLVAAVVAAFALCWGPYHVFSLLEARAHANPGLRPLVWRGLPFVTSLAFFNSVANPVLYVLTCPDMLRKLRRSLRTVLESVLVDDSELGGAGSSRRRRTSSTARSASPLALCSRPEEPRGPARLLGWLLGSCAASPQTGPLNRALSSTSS
The experiment can be described thus: Calcium flux FLIPR assay, antagonism against CRTH2 receptor (PGD2 at EC80). The class given is cell-based. The following applies: CHO-K1/CRTH2/Gα15 cells; blocking activation induced by PGD2 at EC80. On the procedure: Test procedure The test was performed by Nanjing GenScript Biotech Ltd. by calcium flux assay. Test procedure and results are as follows:
Material for test was weighed accurately, and DMSO was added to dissolve the material for test, mixed and homogenized sufficiently, and formulated to 50 mM. And then, it was diluted to 50 μM by using 20 mM HEPES (hydroxyethylpiperazine ethanesulfonic acid) buffer solution at pH 7.4, and the maximum concentration of the compound was 10000 nM. It was further diluted by 3 folds as a series, and consecutively diluted to 10 concentrations, to reserve.
FLIPR Assay (Real Time Fluorescence Imaging Analysis)
In a 384 black microwell plate, 20 μl of cell solution containing 20000 CHO-K1/CRTH2/Gα15 was added, and was incubated at 37° C., 5% CO2 for 18 h. Then, 20 μl of stain in the FLIPR® Calcium 4 assay kit (kit) was added, and 10 μl of compound solution was added. Then, it was incubated at 37° C. for 60 min, and was incubated at room temperature for 15 min. Within 20 seconds, PGD2 HEPES buffer solution of an agonist PGD2 (prostaglandin D2) at the concentration of EC80 was added, and the values of fluorescence of 21-120 seconds were detected.
Data Processing ΔRFU(Relative fluorescence intensity)=maximum fluorescence value of 21-120 seconds−average value of fluorescence value of 1-20 seconds. Inhibition ratio={1−(ΔRFUcompound−ΔRFUbackground)/(ΔRFUagonists control−ΔRFUbackground)}×100 IC50 values of the compounds (i.e. the concentration of the compound for test needed for blocking 50% of the activation of CRTH2 receptor induced by PGD2 at the concentration of EC80) were calculated based on the inhibition ratios. Test Results and Conclusions
In general terms: A change in cytosolic calcium serves as a functional read-out for many receptors and channels.
Consider `Cc1c(CC(=O)O)c2ccccc2n1Cc1ccc(NC(=O)c2ccc3ccccc3c2)cc1` [Compound 1, 2-[1-[4-(2-naphthamido)benzyl]-2-methyl-1H-indol-3-yl]acetic acid], for which the IC50 turned out to be 2.6 nM. Same read-out and setting: the figure for `Cc1c(Cc2ccc(NC(=O)c3ccc4ccccc4c3)cc2)c2ccccc2n1CC(=O)O` [Compound 2, 2-[3-[4-(2-naphthamido)benzyl]-2-methyl-1H-indol-1-yl]acetic acid] is 2.3 nM; for `Cc1c(Cc2ccc(NC(=O)c3ccc(C(F)(F)F)cc3)cc2)c2ccccc2n1CC(=O)O` [Compound 3, 2-[2-methyl-3-[4-[4-(trifluoromethyl)benzamido]benzyl]-1H-indol-1-yl]acetic acid] it is 6.2 nM. In the case of `Cc1c(Cc2ccc(NC(=O)c3ccc(Cl)c(Cl)c3)cc2)c2ccccc2n1CC(=O)O` [Compound 4, 2-[3-[4-(3,4-dichlorobenzamido)benzyl]-2-methyl-1H-indol-1-yl]acetic acid], the IC50 is 2.7 nM.

`O=C(O)Cn1nc(Cc2ccc(NC(=O)c3ccc4ccccc4c3)cc2)c2ccccc21` [Compound 5, 2-[3-(4-(2-naphthamido)benzyl)-1H-indazol-1-yl]acetic acid]: the IC50 was 2.3 nM. For `Cc1c(Cc2ccc(NC(=O)c3ccc(Cl)cc3)cc2)c2ccccc2n1CC(=O)O` [Compound 6, 2-[3-[4-(4-chlorobenzamido)benzyl]-2-methyl-1H-indol-1-yl]acetic acid], the IC50 was determined as 0.5 nM. As for `CCc1c(Cc2ccc(NC(=O)c3ccc4ccccc4c3)cc2)c2ccccc2n1CC(=O)O` [Compound 7, 2-[3-[4-(2-naphthamido)benzyl]-2-ethyl-1H-indol-1-yl]acetic acid], the IC50 worked out at 7 nM. The same measure, in the same setting: the figure for `O=C(O)Cn1nc(Cc2ccc(NC(=O)c3ccc(Cl)cc3)cc2)c2ccccc21` [Compound 8, 2-[3-[4-(4-chlorobenzamido)benzyl]-1H-indazol-1-yl]acetic acid] is 9.7 nM; for `O=C(O)Cc1nn(Cc2ccc(NC(=O)c3ccc4ccccc4c3)cc2)c2ccccc12` [Compound 9, 2-[1-[4-(2-naphthamido)benzyl]-1H-indazol-3-yl]acetic acid] it is 3.6 nM. Regarding `O=C(O)Cc1nn(Cc2ccc(NC(=O)c3ccc(Cl)cc3)cc2)c2ccccc12` [Compound 10, 2-[1-[4-(4-chlorobenzamido)benzyl]-1H-indazol-3-yl]acetic acid], the IC50 was found to be 7.3 nM. The same measure, in the same setting: the figure for `O=C(O)Cc1nn(Cc2ccc(NC(=O)c3ccc4ccccc4c3)cc2)c2ccc(F)cc12` [Compound 11, 2-[1-[4-(2-naphthamido)benzyl]-5-fluoro-1H-indazol-3-yl]acetic acid] is 1.19 nM; for `O=C(O)Cc1nn(Cc2ccc(NC(=O)c3ccc4ccccc4c3)cc2)c2cc(F)ccc12` [Compound 12, 2-[1-[4-(2-naphthamido)benzyl]-6-fluoro-1H-indazol-3-yl]acetic acid] it is 14.9 nM; for `O=C(O)Cc1nn(Cc2ccc(NC(=O)c3ccc4cc(F)ccc4c3)cc2)c2ccccc12` [Compound 13, 2-[1-[4-(6-fluoro-2-naphthamido)benzyl]-1H-indazol-3-yl]acetic acid] it is 4.42 nM.

In the case of `O=C(O)Cc1nn(Cc2ccc(NC(=O)c3ccc4ccccc4c3)cc2)c2ncccc12` [Compound 23, 2-[1-[4-(2-naphthamido)benzyl]-1H-pyrazolo[3,4-b]pyridin-3-yl]acetic acid], the IC50 worked out at 5.7 nM. On to `O=C(O)CCn1c2c(c3ccccc31)C[C@H](NS(=O)(=O)c1ccc(F)cc1)CC2` [Ramatroban, reference compound], for which the IC50 is 10300 nM.
